Assay results published in ChEMBL document CHEMBL1154198, “Chemical genetics of Plasmodium falciparum” (Nature, 2010).

Tests used:
Plasmodium falciparum [1] = assay: ST_JUDE: Plasmodium falciparum 3D7 EC50 (uM) as measured by SYBR green dye; format: functional, organism-based
Plasmodium falciparum [2] = assay: ST_JUDE: Plasmodium falciparum K1 EC50 (uM) as measured by SYBR green dye; format: functional, organism-based

Compound	EC50 (Plasmodium falciparum [1])	EC50 (Plasmodium falciparum [2])
CCOC(=O)c1nnn(-c2nonc2N)c1-c1ccc(Cl)cc1	> 15000 nM	3470 nM
O=C(Cc1ccc(Br)cc1)OCC(=O)c1ccc(F)cc1	> 15000 nM	> 15000 nM
CO/C(O)=C1\C(C)=NC2=C(C(=O)CC(c3ccccc3OC)C2)C1c1ccc(OC)c(OC)c1 (stereo not given)	> 15000 nM	> 15000 nM
CCOc1ccc(NC(=O)c2sc3nc4n(c(=O)c3c2C)CCC4)cc1	> 15000 nM	> 15000 nM
COc1ccc(S(=O)(=O)NC2=C/C(=N\c3ccc(NC(C)=O)cc3)C(=O)c3ccccc32)cc1	5750 nM	2870 nM
CCOC(=O)C1=C(Nc2ccc(Cl)cc2)S/C(=C\c2cccc(OC)c2O)C1=O	> 15000 nM	4000 nM
CCCCc1ccc(OCC(=O)N/N=C/c2cccc(OC)c2)cc1	> 15000 nM	> 15000 nM
Cc1ccc(NC(=O)CSc2nncc(O)n2)cc1	4880 nM	924 nM
COc1ccc(N2CCN(C(CNC(=O)c3ccc(C(C)(C)C)cc3)c3ccco3)CC2)cc1 (stereo not given)	> 15000 nM	1510 nM
COc1ccc(C(=O)C2CCCN(Cc3ccc(OCCO)cc3)C2)cc1OC (stereo not given)	> 15000 nM	> 15000 nM
CCCNC(=O)C1CN1Cc1ccc(OC)cc1 (stereo not given)	6810 nM	6920 nM
Cc1ccc(OCCCOc2cccc3ccc(C)nc23)c([N+](=O)[O-])c1	> 15000 nM	> 15000 nM
COC(=O)c1ccccc1NC(=O)c1ccc(Cn2cc(Cl)cn2)cc1	> 15000 nM	> 15000 nM
COc1ccc(-n2c(=O)c3c4c(sc3n3c(SCc5ccccc5)nnc23)COC(C)(C)C4)cc1	11300 nM	> 15000 nM
CCOC(=O)c1ccc(NC(=O)CSc2nn3c(=O)c(C)nnc3s2)cc1	> 15000 nM	> 15000 nM
Cc1sc(NC(=O)c2cc(-c3ccccn3)nc3ccc(Cl)cc23)c(C(N)=O)c1C	> 15000 nM	> 15000 nM
CCc1cccc(NC(=O)c2cc3c(-c4ccc(OC)c(OC)c4)nn(C)c3s2)c1	> 15000 nM	> 15000 nM
CC(C)N1CCN(Cc2ccc(C#CC(C)(C)O)cc2)CC1CCO (stereo not given)	> 15000 nM	> 15000 nM
COC(=O)c1c(S(=O)(=O)N2CCCC2)sc2c1CCN(Cc1c[nH]nc1-c1ccccc1)C2	> 15000 nM	> 15000 nM
CCOc1ccc(NC(=O)C2c3cc(OC)c(OC)cc3C(=O)N(C)C2c2ccc(OC)cc2)cc1 (stereo not given)	> 15000 nM	1070 nM

Compound	EC50 (Plasmodium falciparum [1])	EC50 (Plasmodium falciparum [2])
CCN(CC)CCNC(=O)c1ccc(Cn2c(SCc3ccccc3C)nc3ccncc32)cc1	6740 nM	> 15000 nM
O=[N+]([O-])c1ccc(O)c(/N=C/C=C(\O)c2ccc(Cl)c(Cl)c2)c1	> 15000 nM	1650 nM
COc1ccc(-c2nn(C)c3sc(C(=O)Nc4cccc(SC)c4)cc23)cc1OC	> 15000 nM	5240 nM
CCN1CCN(c2cc(C)c3cc(NC(=S)N4CCC(N5CCCCC5)CC4)ccc3n2)CC1	5910 nM	7890 nM
CCOc1ccccc1N1CCN(Cc2cc(Br)cc(Br)c2O)CC1	8240 nM	3780 nM
CC(=O)NC(c1ccc(C(C)C)cc1)c1ccc2cccnc2c1O (stereo not given)	6600 nM	6760 nM
COc1ccc2nc(N(Cc3cccnc3)C(=O)c3cccc(Cl)c3)sc2c1	> 15000 nM	> 15000 nM
COc1ccc2sc(N(Cc3cccnc3)C(=O)c3ccc(Cl)cc3)nc2c1	> 15000 nM	> 15000 nM
COCC(C)Oc1cccc(CN(Cc2ccncc2)C(=O)/C=C/c2cccc(F)c2)c1 (stereo not given)	4140 nM	> 15000 nM
COc1ccc2nc(C)cc(Nc3ccc(N4CCOCC4)cc3)c2c1	4690 nM	> 15000 nM
CCOc1ccc(Nc2c3ccccc3nc3ccccc23)cc1	5720 nM	1910 nM
COc1cc(Br)c(C2C(C#N)=C(N)Oc3cc(O)ccc32)cc1OC (stereo not given)	> 15000 nM	5800 nM
COc1ccc2sc(N(Cc3cccnc3)C(=O)c3ccc(C#N)cc3)nc2c1	> 15000 nM	> 15000 nM
COC(=O)Oc1ccc2c(=O)c(Oc3ccc4ccccc4c3)c(C(F)(F)F)oc2c1	> 15000 nM	> 15000 nM
Clc1cccc(C2Nc3ccccc3-c3nc4ccccc4n32)c1 (stereo not given)	> 15000 nM	4630 nM
CCCc1cc(O)nc(-n2nc(C)cc2NC(=O)c2ccc(Cl)cc2)n1	> 15000 nM	> 15000 nM
CCC(=O)N1c2ccc(S(=O)(=O)CCC(=O)Nc3ccc(Br)c(C)c3)cc2CC1C (stereo not given)	> 15000 nM	> 15000 nM
Cc1cccc(C(=O)NCc2nnc(S)n2-c2cccc(C(F)(F)F)c2)c1	> 15000 nM	> 15000 nM
Cn1c(-c2ccccc2[N+](=O)[O-])[n+](C)c2ccccc21	7380 nM	> 15000 nM

These reach a lower EC50 (Plasmodium falciparum [1]). Values come first.

EC50 (Plasmodium falciparum [1])	EC50 (Plasmodium falciparum [2])	Compound
772 nM	496 nM	O=C(Nc1cc(Cl)cc(Cl)c1)Nc1ccc(Cl)c(Cl)c1
1500 nM	1670 nM	Cc1ccnc(NC(c2cccc(Cl)c2Cl)c2ccc3cccnc3c2O)c1 (stereo not given)
1250 nM	1420 nM	COc1ccc(OC)c(NC(=O)CSc2nc(-c3ccccc3Cl)ns2)c1
2320 nM	656 nM	CCOc1cc(C2CC(=O)NC3=C2C(=O)CC(c2ccc(OC)c(OC)c2)C3)ccc1O (stereo not given)
503 nM	612 nM	COc1ccc(OC)c(NC(=O)C2c3ccccc3C(=O)N(CC(C)C)C2c2cccs2)c1 (stereo not given)
1170 nM	842 nM	COc1ccc2c(ccc(/C=C3\C=CC=CN3C)[n+]2C)c1
1290 nM	1360 nM	COc1ccc(CCNC(=S)Nc2ccccc2Cl)cc1OC
879 nM	6010 nM	Cc1ccc2nc(C)cc(Nc3cccc(C(F)(F)F)c3)c2c1
3080 nM	> 15000 nM	CCN(CC)c1ccc(/C=C/C2=[N+](C)c3ccc(C(=O)OC)cc3C2(C)C)cc1
973 nM	1200 nM	O=C(Nc1cccc(C(F)(F)F)c1)c1cc(Cl)ccc1O
2820 nM	4340 nM	Cc1ccccc1NC(=O)C1c2ccccc2C(=O)N(C2CCCC2)C1c1cccs1 (stereo not given)
31.5 nM	45.8 nM	CC(=O)N(C1=C(N(C)C)C(=O)c2ccccc2C1=O)c1ccc(I)cc1
19.1 nM	24.7 nM	O=C1C(NC2CCCCC2)=C(N2CCCCC2)C(=O)c2ccccc21
1490 nM	4270 nM	CN1CCN(c2nc(Nc3ccc(F)cc3)c3cnn(-c4ccccc4)c3n2)CC1
1350 nM	1780 nM	COc1ccc(Cl)cc1N(C)C(=O)c1cc2c(s1)-c1ccccc1S(=O)(=O)C2
2330 nM	1450 nM	Oc1c(CN2CCN(c3cccc(C(F)(F)F)c3)CC2)cc(COCc2ccccc2)c2cccnc12
2840 nM	1220 nM	CCn1c2ccccc2c2cc(CN3CCN(Cc4cc(OC)ccc4O)CC3)ccc21
941 nM	808 nM	CC(C)OCc1cc(CN2CCN(c3cccc(Cl)c3)CC2)c(O)c2ncccc12
1550 nM	> 15000 nM	COc1ccc(Nc2cc(C)nc(Nc3ccc(NS(=O)(=O)c4ccc(F)cc4)cc3)n2)cc1
852 nM	1490 nM	O=C1C(Nc2cccc(C(F)(F)F)c2)=C(N2CCCCC2)C(=O)c2ccccc21
578 nM	948 nM	CSc1cccc(NC(=O)C2c3ccccc3C(=O)N(C3CCCC3)C2c2cccs2)c1 (stereo not given)
3850 nM	3800 nM	CCCO/C(O)=C1\C(C)=NC2=C(C(=O)CC(c3ccccc3OC)C2)C1c1ccc(OC)c(OC)c1 (stereo not given)
2290 nM	> 15000 nM	CCN(CC)c1ccc(/C=C/C(=O)NCCN2CCC(N(C)C3CCCCC3C)CC2)cc1 (stereo not given)

EC50 (Plasmodium falciparum [1])	EC50 (Plasmodium falciparum [2])	Compound
130 nM	200 nM	CSc1cccc(NC(=O)C2c3ccccc3C(=O)N(CC(C)C)C2c2cccs2)c1 (stereo not given)
2290 nM	> 15000 nM	CCN(CC)c1cc(C)c2cc(NC(=O)c3ccc(OC)c(OC)c3)ccc2n1
255 nM	38.9 nM	CC(C)(C)c1ccc2c(c1)CN(Cc1ccc(Cl)cc1)CO2
1100 nM	3480 nM	CCOc1ccc(Nc2cc(C)nc3ccc(OCC)cc23)cc1
2850 nM	4300 nM	CC(C)C[C@@H](CO)Nc1c2ccccc2nc2ccccc12
2130 nM	> 15000 nM	Oc1c(C(Nc2ccccn2)c2ccccc2Br)cc(Cl)c2cccnc12 (stereo not given)
1620 nM	2070 nM	CC1Cc2nc(SCC(=O)Nc3cccc(F)c3)n(C)c(=O)c2S1 (stereo not given)
574 nM	544 nM	CCCCn1c(=N)n(CC(O)c2ccc(Cl)cc2)c2ccccc21 (stereo not given)
3760 nM	3440 nM	Oc1c(CN2CCN(c3ccccc3F)CC2)cc(Br)c2cccnc12
3910 nM	1720 nM	CO/C(O)=C1\C(C)=NC2=C(C(=O)CC(c3ccccc3OC)C2)C1c1cccs1 (stereo not given)
1180 nM	> 15000 nM	Cc1ccc(S(=O)(=O)Oc2ccc(/C=N/N=C(N)N)cc2)cc1
921 nM	1220 nM	Fc1ccc(-c2nc3ncccn3c2Nc2cccc(C(F)(F)F)c2)cc1
985 nM	965 nM	Cc1cccc(/C=C2/Sc3ccc(C(=O)NCCN4CCN(c5cc(Cl)ccc5C)CC4)cc3N(C)C2=O)c1
456 nM	1150 nM	O=C1C(Nc2cccc(Br)c2)=C(N2CCCCC2)C(=O)c2ccccc21
3480 nM	2260 nM	Cc1ccc(Oc2nc(-c3ccncc3)nc3ccccc23)cc1
398 nM	6960 nM	CCOc1ccc2c(c1)C(=NNC(=N)N)c1cc(OCC)ccc1-2
2020 nM	1080 nM	Cc1ccc2c(c1)c1c(n2CC(O)Cn2cnc(-c3ccccc3)c2-c2ccccc2)CCCC1 (stereo not given)
634 nM	1590 nM	CC1CCCCN1CCCNC(=O)c1ccc2c(c1)sc1nc(-c3ccc(F)cc3)cn12 (stereo not given)
722 nM	4010 nM	C=CCn1c(SCC(=O)Nc2ccccc2OC)nc2sc(C)cc2c1=O
3340 nM	1090 nM	CCOc1cccc(CN2CCCC(C(=O)c3cccc(C(F)(F)F)c3)C2)c1O (stereo not given)
1410 nM	> 15000 nM	CCCCOc1ccc(S(=O)(=O)Nc2ccc(Nc3nc(C)cc(N4CCCC4)n3)cc2)cc1
1250 nM	1030 nM	CCOc1ccc(S(=O)(=O)NC2=C/C(=N\c3ccc(O)cc3)C(=O)c3ccccc32)cc1
1300 nM	1900 nM	CC(=O)N(C1=C(N(C)C)C(=O)c2ccccc2C1=O)c1ccc(C(=O)O)cc1
